Measurements taken from paper PMC5779714, “Metallochaperone UreG serves as a new target for design of urease inhibitor: A novel strategy for development of antimicrobials” (PLoS Biology, 2018).
Where two headings read alike, the source gives them in different places.

Molecular target: UreG (Helicobacter pylori, UniProt Q09066)
Experiment: biochemical
Type: binding, H. pylori
Conditions: for ΔTm at 50 µM: read-out: thermal shift on the melting temperature of UreG
[1] = UreG + compound 50μM, Temperature 30.19
[2] = UreG + compound 50μM, Temperature 30.56
[3] = UreG + compound 50μM, Temperature 30.94
[4] = UreG + compound 50μM, Temperature 31.33
[5] = UreG + compound 50μM, Temperature 31.72
[6] = UreG + compound 50μM, Temperature 32.09
[7] = UreG + compound 50μM, Temperature 32.47
[8] = UreG + compound 50μM, Temperature 32.85
[9] = UreG + compound 50μM, Temperature 33.30
[10] = UreG + compound 50μM, Temperature 33.65
[11] = UreG + compound 50μM, Temperature 34.08
[12] = UreG + compound 50μM, Temperature 34.47
[13] = UreG + compound 50μM, Temperature 34.84
[14] = UreG + compound 50μM, Temperature 35.21
[15] = UreG + compound 50μM, Temperature 35.58
[16] = UreG + compound 50μM, Temperature 35.96
[17] = UreG + compound 50μM, Temperature 36.34
[18] = UreG + compound 50μM, Temperature 36.71
[19] = UreG + compound 50μM, Temperature 37.48
[20] = UreG + compound 50μM, Temperature 37.86
[21] = UreG + compound 50μM, Temperature 38.23
[22] = UreG + compound 50μM, Temperature 38.61
[23] = UreG + compound 50μM, Temperature 38.99
[24] = UreG + compound 50μM, Temperature 39.38
[25] = UreG + compound 50μM, Temperature 39.76
[26] = UreG + compound 50μM, Temperature 40.14
[27] = UreG + compound 50μM, Temperature 40.52
[28] = UreG + compound 50μM, Temperature 40.91
[29] = UreG + compound 50μM, Temperature 41.29
[30] = UreG + compound 50μM, Temperature 41.66
[31] = UreG + compound 50μM, Temperature 42.04
[32] = UreG + compound 50μM, Temperature 42.42
[33] = UreG + compound 50μM, Temperature 42.81
[34] = UreG + compound 50μM, Temperature 43.18
[35] = UreG + compound 50μM, Temperature 43.56
[36] = UreG + compound 50μM, Temperature 43.94
[37] = UreG + compound 50μM, Temperature 44.33
[38] = UreG + compound 50μM, Temperature 44.71
[39] = UreG + compound 50μM, Temperature 45.09
[40] = UreG + compound 50μM, Temperature 45.47
[41] = UreG + compound 50μM, Temperature 45.85
[42] = UreG + compound 50μM, Temperature 46.23
[43] = UreG + compound 50μM, Temperature 46.60
[44] = UreG + compound 50μM, Temperature 46.99
[45] = UreG + compound 50μM, Temperature 47.37
[46] = UreG + compound 50μM, Temperature 47.75
[47] = UreG + compound 50μM, Temperature 48.13
[48] = UreG + compound 50μM, Temperature 48.52
[49] = UreG + compound 50μM, Temperature 48.89
[50] = UreG + compound 50μM, Temperature 49.28
[51] = UreG + compound 50μM, Temperature 49.65
[52] = UreG + compound 50μM, Temperature 50.04
[53] = UreG + compound 50μM, Temperature 50.42
[54] = UreG + compound 50μM, Temperature 50.80
[55] = UreG + compound 50μM, Temperature 51.19
[56] = UreG + compound 50μM, Temperature 51.56
[57] = UreG + compound 50μM, Temperature 51.96
[58] = UreG + compound 50μM, Temperature 52.34
[59] = UreG + compound 50μM, Temperature 52.72
[60] = UreG + compound 50μM, Temperature 53.10
[61] = UreG + compound 50μM, Temperature 53.48
[62] = UreG + compound 50μM, Temperature 53.86
[63] = UreG + compound 50μM, Temperature 54.24
[64] = UreG + compound 50μM, Temperature 54.62
[65] = UreG + compound 50μM, Temperature 55.00
[66] = UreG + compound 50μM, Temperature 55.38
[67] = UreG + compound 50μM, Temperature 55.77

Sequence of UreG (Q09066 whole entry): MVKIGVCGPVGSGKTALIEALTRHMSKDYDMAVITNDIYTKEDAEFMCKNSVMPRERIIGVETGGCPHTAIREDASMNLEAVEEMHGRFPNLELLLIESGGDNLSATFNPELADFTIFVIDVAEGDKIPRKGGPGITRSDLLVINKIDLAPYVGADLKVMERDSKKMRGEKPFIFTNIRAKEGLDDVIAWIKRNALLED

Cc1cccc(N2CCN(C(=O)c3cc(S(=O)(=O)N(C)C)ccc3N3CCCC3)CC2)c1C [cmpd4]
Normalized fluo: 0.61
Normalized fluo [1]: 4.76
Normalized fluo [2]: 4.12
Normalized fluo [3]: 3.54
Normalized fluo [4]: 2.90
Normalized fluo [5]: 2.50
Normalized fluo [6]: 2.10
Normalized fluo [7]: 1.61
Normalized fluo [8]: 1.32
Normalized fluo [9]: 0.93
Normalized fluo [10]: 0.64
Normalized fluo [11]: 0.41
Normalized fluo [12]: 0.19
Normalized fluo [13]: 0.16
Normalized fluo [14]: 0.06
Normalized fluo [15]: 3.2e-7
Normalized fluo [16]: 0.09
Normalized fluo [17]: 0.11
Normalized fluo [18]: 0.29
Normalized fluo [19]: 0.97
Normalized fluo [20]: 1.58
Normalized fluo [21]: 2.12
Normalized fluo [22]: 2.84
Normalized fluo [23]: 3.60
Normalized fluo [24]: 4.60
Normalized fluo [25]: 5.58
Normalized fluo [26]: 6.65
Normalized fluo [27]: 7.99
Normalized fluo [28]: 9.53
Normalized fluo [29]: 11.09
Normalized fluo [30]: 12.65
Normalized fluo [31]: 14.59
Normalized fluo [32]: 16.59
Normalized fluo [33]: 18.72
Normalized fluo [34]: 21.02
Normalized fluo [35]: 23.41
Normalized fluo [36]: 25.90
Normalized fluo [37]: 28.66
Normalized fluo [38]: 31.01
Normalized fluo [39]: 34.36
Normalized fluo [40]: 37.25
Normalized fluo [41]: 40.25
Normalized fluo [42]: 43.53
Normalized fluo [43]: 46.72
Normalized fluo [44]: 50.00
Normalized fluo [45]: 53.25
Normalized fluo [46]: 56.55
Normalized fluo [47]: 59.79
Normalized fluo [48]: 62.98
Normalized fluo [49]: 66.11
Normalized fluo [50]: 69.46
Normalized fluo [51]: 72.30
Normalized fluo [52]: 75.42
Normalized fluo [53]: 78.05
Normalized fluo [54]: 80.94
Normalized fluo [55]: 83.37
Normalized fluo [56]: 85.74
Normalized fluo [57]: 88.30
Normalized fluo [58]: 90.21
Normalized fluo [59]: 92.02
Normalized fluo [60]: 93.58
Normalized fluo [61]: 95.15
Normalized fluo [62]: 96.31
Normalized fluo [63]: 97.30
Normalized fluo [64]: 98.18
Normalized fluo [65]: 98.87
Normalized fluo [66]: 99.53
Normalized fluo [67]: 100.00
ΔTm at 50 µM: ~2.5 °C

O=C(Cn1c2ccccc2c(=O)c2ccccc21)N/N=C/c1cc([N+](=O)[O-])ccc1N1CCCCCC1 [cmpd8]
Normalized fluo: 1.54
Normalized fluo [1]: 6.82
Normalized fluo [2]: 5.74
Normalized fluo [3]: 4.76
Normalized fluo [4]: 4.03
Normalized fluo [5]: 3.29
Normalized fluo [6]: 2.61
Normalized fluo [7]: 2.02
Normalized fluo [8]: 1.65
Normalized fluo [9]: 1.24
Normalized fluo [10]: 0.72
Normalized fluo [11]: 0.51
Normalized fluo [12]: 0.31
Normalized fluo [13]: 0.0654
Normalized fluo [14]: 0.00
Normalized fluo [15]: 0.22
Normalized fluo [16]: 0.34
Normalized fluo [17]: 0.64
Normalized fluo [18]: 0.86
Normalized fluo [19]: 2.00
Normalized fluo [20]: 2.40
Normalized fluo [21]: 3.05
Normalized fluo [22]: 3.75
Normalized fluo [23]: 4.78
Normalized fluo [24]: 5.95
Normalized fluo [25]: 7.06
Normalized fluo [26]: 8.20
Normalized fluo [27]: 9.33
Normalized fluo [28]: 10.80
Normalized fluo [29]: 12.52
Normalized fluo [30]: 14.35
Normalized fluo [31]: 16.04
Normalized fluo [32]: 18.03
Normalized fluo [33]: 19.94
Normalized fluo [34]: 21.90
Normalized fluo [35]: 24.29
Normalized fluo [36]: 26.66
Normalized fluo [37]: 29.44
Normalized fluo [38]: 32.01
Normalized fluo [39]: 34.92
Normalized fluo [40]: 37.82
Normalized fluo [41]: 40.91
Normalized fluo [42]: 43.67
Normalized fluo [43]: 46.80
Normalized fluo [44]: 50.61
Normalized fluo [45]: 53.88
Normalized fluo [46]: 56.90
Normalized fluo [47]: 60.37
Normalized fluo [48]: 63.48
Normalized fluo [49]: 67.05
Normalized fluo [50]: 70.49
Normalized fluo [51]: 73.41
Normalized fluo [52]: 76.19
Normalized fluo [53]: 79.38
Normalized fluo [54]: 82.32
Normalized fluo [55]: 85.00
Normalized fluo [56]: 87.48
Normalized fluo [57]: 89.89
Normalized fluo [58]: 91.67
Normalized fluo [59]: 93.50
Normalized fluo [60]: 95.00
Normalized fluo [61]: 96.08
Normalized fluo [62]: 97.41
Normalized fluo [63]: 98.54
Normalized fluo [64]: 99.22
Normalized fluo [65]: 99.67
Normalized fluo [66]: 100.00
Normalized fluo [67]: 99.66
ΔTm at 50 µM: ~2.5 °C
